Values joined by “and” are separate entries in the source; they are usually repeats but may differ in a detail not shown here. Identical values can stand only once.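 Tested at 5 concentrations; 48 h exposure; 96-well plates; endpoints linearly interpolated, else capped at highest concentration. The concentration for full growth arrest is given as TGI.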
Tests used:
Experiment in all cases: NCI tumour cell line growth inhibition, 48 h
CAKI-1 renal = test system: CAKI-1 renal
M19-MEL melanoma = test system: M19-MEL melanoma
DMS 114 small cell lung = test system: DMS 114 small cell lung
DMS 273 small cell lung = test system: DMS 273 small cell lung
HOP-18 NSCLC = test system: HOP-18 NSCLC
SNB-78 CNS = test system: SNB-78 CNS
LXFL 529 NSCLC = test system: LXFL 529 NSCLC
KM20L2 colon = test system: KM20L2 colon
XF 498 CNS = test system: XF 498 CNS
DLD-1 colon = test system: DLD-1 colon
RXF-631 renal = test system: RXF-631 renal

Structure (SMILES)	TGI (CAKI-1 renal)	also measured
CCCCCCCCCC[C@@H](O)[C@H]1CC[C@H]([C@H]2CC[C@H]([C@H](O)CCCCCCCCCC[C@@H]3CC(CC(C)=O)C(=O)O3)O2)O1 (some centres undefined)	> 50 µM	
Cc1sc2nc3n(c(=O)c2c1C)N=CN(c1ccccc1)C3	> 100 µM	
CCOC(=O)c1cc(=C2\CCN(CC(C)CC)C2=S)/c(=C(/O)CC)[nH]1 (centres undefined)	26.4 µM	
Cc1cc2c(c(C(=O)NCCC(=O)O)c1)Oc1c(cc(C)cc1C(=O)NCCC(=O)O)S2	> 100 µM	
O=C(/C(=C(/Br)I)c1ccccc1)c1ccccc1	> 100 µM	
COC(=O)C1=C(C(=O)OC)C2OC1C1C2C2(C)C(C)=C(C)C1(C)S2=O (centres undefined)	27 µM	
N#Cc1c(N)[nH]c(=S)c(C#N)c1-c1cccc(Cl)c1	> 100 µM	
Cc1c(S(=O)(=O)c2ccccc2)c(N)n(Cc2ccccc2)c1C	> 100 µM	
CCCCc1c(O)nc(Nc2nc3ccccc3[nH]2)[nH]c1=O	> 100 µM	
O=c1oc2ccccc2c(O)c1C(c1cc(OCc2ccccc2)cc(OCc2ccccc2)c1)c1c(O)c2ccccc2oc1=O	22.1 µM	
COc1ccc(-c2c(C#N)c(S)n(C3OC(COC(C)=O)C(OC(C)=O)C(OC(C)=O)C3OC(C)=O)c(=O)c2C#N)cc1 (centres undefined)	56.4 µM and 98.8 µM	
O=C1CC2(C[C@@H]3CCCCCCCCC[C@@H](C3)C2)N1 (some centres undefined)	25.4 µM	TGI (M19-MEL melanoma): 28.8 µM; TGI (DMS 114 small cell lung): 31.6 µM; TGI (DMS 273 small cell lung): 25.3 µM; TGI (HOP-18 NSCLC): 22.6 µM; TGI (SNB-78 CNS): 49.6 µM; TGI (LXFL 529 NSCLC): 29.7 µM; TGI (KM20L2 colon): 31.4 µM; TGI (XF 498 CNS): 24.9 µM
CCOC(=O)c1c(NC(=O)c2ccccc2)sc2c1CCCC2	> 100 µM	
CCOC(=O)c1sc2nc(SC)nc3c2c1N=CN3c1ccc(Br)cc1	> 100 µM	
Cc1ccc(N=Nc2c3c(c(O)c4ccccc24)CCC(C)(C)O3)cc1	> 100 µM	
COc1ccc(-c2c(C#N)c(N)n(C3OC(CO)C(O)C(O)C3O)c(=S)c2C#N)cc1 (centres undefined)	> 100 µM	
CC12CC(c3ccccc3O1)C(C(=O)Nc1ccc(F)cc1)C(=O)N2 (centres undefined)	> 100 µM	
CCOc1ccc(N/C(=C(/C(Cl)=C(/Cl)NCCN)[N+](=O)[O-])n2nnc3ccccc32)cc1	34.8 µM	
CC[C@@H]1CC[C@@H]2[C@H](CC[C@]3(C)[C@@H](O)CC[C@@H]23)[C@H]1C(=O)O	> 100 µM	
Cc1cccc(N2C(=O)C3ON(C(C(N)=O)c4ccccc4)C(c4c5ccccc5c(Cl)c5ccccc45)C3C2=O)c1C (centres undefined)	27.3 µM	
COc1ccc2nc(-c3ccc(OCc4ccccc4)cc3)ccc2c1		TGI (DLD-1 colon): > 100 µM; TGI (M19-MEL melanoma): > 100 µM; TGI (DMS 114 small cell lung): > 100 µM; TGI (HOP-18 NSCLC): > 100 µM; TGI (SNB-78 CNS): > 100 µM; TGI (LXFL 529 NSCLC): > 100 µM; TGI (KM20L2 colon): > 100 µM; TGI (XF 498 CNS): > 100 µM
O=C(Cc1nc2ccc(C(=O)c3ccccc3)cc2[nH]c1=O)C(=O)Nc1ccc(Br)cc1	> 100 µM	

Structure (SMILES)	TGI (CAKI-1 renal)	also measured
c1cc2nnc1SCCSCCSc1ccc(nn1)SCCSCCS2	> 100 µM	
Nc1nc(Cl)cc(NCC2(CO)CC(CCc3ccccc3)C2)n1 (centres undefined)	> 100 µM	
CC(C)(C)OC(=O)NC(C)(C)C(=O)NCCC(=O)O	> 100 µM	
O=C1CC(O)c2c1csc2Br (centres undefined)	> 100 µM	
COc1ccc(C2C(Cl)C(=O)N2NC(=O)c2ccc(NC(C)=O)cc2)cc1 (centres undefined)	> 100 µM	TGI (DLD-1 colon): > 100 µM; TGI (M19-MEL melanoma): > 100 µM; TGI (DMS 273 small cell lung): > 100 µM; TGI (SNB-78 CNS): > 100 µM; TGI (LXFL 529 NSCLC): > 100 µM; TGI (KM20L2 colon): > 100 µM; TGI (XF 498 CNS): > 100 µM
CCN(CC)CCOC(c1cc(OC)ccc1OC)c1ccc2n1-c1ccccc1OC2 (centres undefined)	30 µM	
O=c1c2ccccc2[nH]c(=S)n1-c1ccc(N=Nc2cccc3c(O)cccc23)cc1	> 100 µM	
c1cc(-c2cnc(-c3ccc4c(c3)CCCO4)o2)ccn1	41.5 µM	
CC(=O)C(CN1CCCCC1)C(c1ccccc1)c1c(O)c2ccccc2oc1=O (centres undefined)	> 100 µM	
CCCN=C1CC(C)Nc2ccccc2N1 (centres undefined)	> 100 µM	
CCOC(=O)c1cc(C2(O)CCN(Cc3ccccc3)C2=O)c(-c2cc(C)no2)[nH]1 (centres undefined)	74.3 µM	
Cc1ccc2c(c1C)CC1(Cc3c(ccc4c3CCC4)C1=O)C2=O (centres undefined)	> 100 µM	
CCOP(=O)(OCC)[C@H](O)c1ccsc1	> 100 µM	
CC(C)(C)OC(=O)NCCCCC(NC(=O)OCc1ccccc1)C(N)=O (centres undefined)	> 100 µM	
COC1(C)CC2N(C(=O)c3ccccc3)N=C(c3ccccc3)CC2(C)O1 (centres undefined)	> 100 µM	TGI (DLD-1 colon): > 100 µM; TGI (DMS 114 small cell lung): > 100 µM; TGI (LXFL 529 NSCLC): > 100 µM; TGI (RXF-631 renal): > 100 µM; TGI (KM20L2 colon): > 100 µM; TGI (XF 498 CNS): > 100 µM
CCCCN(CC)c1nc(C)nc2c1c(C)c(C)n2-c1c(C)cc(C)cc1C	30.2 µM	
Cc1cc(-c2nc3ccccc3s2)ccc1NS(=O)(=O)O	> 18.3 µM	
COc1ccc(/C(=C/n2ccnc2)C(=O)c2ccc(OC)c(OC)c2)cc1	> 100 µM	TGI (DLD-1 colon): > 100 µM; TGI (M19-MEL melanoma): > 100 µM; TGI (DMS 114 small cell lung): > 100 µM; TGI (DMS 273 small cell lung): > 100 µM; TGI (LXFL 529 NSCLC): > 100 µM; TGI (KM20L2 colon): > 100 µM; TGI (XF 498 CNS): > 100 µM
CC1(C)CC2(C)CC1CC2O (centres undefined)	> 100 µM	
Cc1ccccc1C1OC1C(=O)c1ccccc1N (centres undefined)	> 100 µM	
COc1ncc(C=C(C#N)C#N)c(OC)n1	> 100 µM	
N#C/C(=C\NC(=S)Nc1ccc(S(=O)(=O)Nc2ccccn2)cc1)C(N)=O	> 100 µM	

— PubChem BioAssay (NCI)
